From the supplement of paper PMC11208160 come the findings set out here.
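Further: IS621 bridge recombinase in Escherichia coli cells against a fixed T5 target plasmid.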

The series in a line: recombinant UMI read abundance after kanamycin selection (control-corrected) (log10(CPM+1)); higher = more efficient recombination; extreme values may be limits of the assay; sequences stand for … in AGTGCAGAGAAAATCGGCCAGTTTTCTCTGCCTGCAGTCCGCATGCCGTGGGACCCCTTGGGTTCTAACCTGTTGCCTAGATTTATGCAGCGGACTGCCTTTCTCCCAAAGTGATAAACCGG…AGGTTGGTTTCACT; site = the 11-nt donor. Put shortly:
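Values, expressed as log10(CPM+1), derive from recombinant UMI counts converted to CPM, averaged across replicates and scaled by control-derived factors. Plating was with IPTG (0.07 mM) plus kanamycin or unselected, two replicates each. The screen pooled donor and donor-binding-loop pairs for the IS621 bridge recombinase in Escherichia coli.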
In the case of “TTAGCTGCATGGACCGGTTTTCCCGGTAATCCGTATTTGTA (site TTAGCTGCTCA)”, the “recombinant UMI read abundance (log10)” value stood at 0.026.

Turning to “TTAGCTGCATGGACCGGTTTTCCCGGTAATCCGTATTTGTA (site TTAGCTGCTGA)”, the “recombinant UMI read abundance (log10)” value stood at 0.

On to “TTAGCTGCATGGACCGGTTTTCCCGGTAATCCGTATTTGTA (site TTAGCTGCTTA)”, for which the “recombinant UMI read abundance (log10)” value turned out to be 1.35.

Consider “TTAGCTTCATGGACCGGTTTTCCCGGTAATCCGTATTTGTG (site TTAGCTACTCA)”, for which the “recombinant UMI read abundance (log10)” value was found to be 0.0149.

On to “TTAGCTTCATGGACCGGTTTTCCCGGTAATCCGTATTTGTG (site TTAGCTCCTCA)”, for which the “recombinant UMI read abundance (log10)” value stood at 0.012.

For the sequence “TTAGCTTCATGGACCGGTTTTCCCGGTAATCCGTATTTGTG (site TTAGCTGCTCA)”, the “recombinant UMI read abundance (log10)” value was 0.00609.

With “TTAGCTTCATGGACCGGTTTTCCCGGTAATCCGTATTTGTG (site TTAGCTTCTCA)”, the “recombinant UMI read abundance (log10)” value amounted to 0.478.

With “TTAGGTTCATGGACCGGTTTTCCCGGTAATCCGTATTTGGC (site TTAGGTTCTGC)”, the “recombinant UMI read abundance (log10)” value worked out at 2.53.

As to “TTAGTATCATGGACCGGTTTTCCCGGTAATCCGTATTTGAG (site CTAGTATCTGT)”, the “recombinant UMI read abundance (log10)” value was 0.

On to “TTAGTATCATGGACCGGTTTTCCCGGTAATCCGTATTTGAG (site TTAGTATCTCT)”, for which the “recombinant UMI read abundance (log10)” value came to 1.66.

As to “TTAGTCTCATGGACCGGTTTTCCCGGTAATCCGTATTTGAC (site CTAGTATCTGT)”, the “recombinant UMI read abundance (log10)” value came out at 0.

Turning to “TTAGTCTCATGGACCGGTTTTCCCGGTAATCCGTATTTGAC (site TTAGTCTCTGT)”, the “recombinant UMI read abundance (log10)” value was found to be 3.02.

In the case of “TTATCTGCATGGACCGGTTTTCCCGGTAATCCGTATTTGTG (site TTAACTGCTCA)”, the “recombinant UMI read abundance (log10)” value was found to be 0.00525.

“TTATCTGCATGGACCGGTTTTCCCGGTAATCCGTATTTGTG (site TTACCTGCTCA)”: the “recombinant UMI read abundance (log10)” value turned out to be 0.0587.

Regarding “TTATCTGCATGGACCGGTTTTCCCGGTAATCCGTATTTGTG (site TTAGCTGCTCA)”, the “recombinant UMI read abundance (log10)” value is 0.00464.

Regarding “TTATCTGCATGGACCGGTTTTCCCGGTAATCCGTATTTGTG (site TTATCTGCTCA)”, the “recombinant UMI read abundance (log10)” value turned out to be 1.73.

Turning to “TTATGGTCATGGACCGGTTTTCCCGGTAATCCGTATTTGGC (site TTATGGTCTGC)”, the “recombinant UMI read abundance (log10)” value is 1.88.

Turning to “TTATGTACATGGACCGGTTTTCCCGGTAATCCGTATTTGGG (site TTATGTACTCC)”, the “recombinant UMI read abundance (log10)” value was 0.0157.

“TTATTGTCATGGACCGGTTTTCCCGGTAATCCGTATTTGCA (site TTATTGTCTTG)”: the “recombinant UMI read abundance (log10)” value came out at 2.35.

Regarding “TTCAAGTCATGGACCGGTTTTCCCGGTAATCCGTATTTGTA (site TTCAAGTCTTA)”, the “recombinant UMI read abundance (log10)” value was found to be 0.621.

“TTCACGGCATGGACCGGTTTTCCCGGTAATCCGTATTTGTC (site TTCACGGCTGA)”: the “recombinant UMI read abundance (log10)” value was 0.624.

For the sequence “TTCAGTCCATGGACCGGTTTTCCCGGTAATCCGTATTTGAT (site TTCAGTCCTAT)”, the “recombinant UMI read abundance (log10)” value amounted to 0.

Regarding “TTCATTACATGGACCGGTTTTCCCGGTAATCCGTATTTGAT (site TTCATTACTAT)”, the “recombinant UMI read abundance (log10)” value turned out to be 0.

Take “TTCCAAGCATGGACCGGTTTTCCCGGTAATCCGTATTTGAG (site ATCCAAGCTCT)”: the “recombinant UMI read abundance (log10)” value is 0.

Consider “TTCCAAGCATGGACCGGTTTTCCCGGTAATCCGTATTTGAG (site CTCCAAGCTCT)”, for which the “recombinant UMI read abundance (log10)” value was 0.00912.

“TTCCAAGCATGGACCGGTTTTCCCGGTAATCCGTATTTGAG (site GTCCAAGCTCT)”: the “recombinant UMI read abundance (log10)” value is 0.0126.

For the sequence “TTCCAAGCATGGACCGGTTTTCCCGGTAATCCGTATTTGAG (site TTCCAAGCTCT)”, the “recombinant UMI read abundance (log10)” value amounted to 0.0285.

As for “TTCCAGCCATGGACCGGTTTTCCCGGTAATCCGTATTTGTG (site TTCCAGCCTCA)”, the “recombinant UMI read abundance (log10)” value is 0.0201.

With “TTCCCTACATGGACCGGTTTTCCCGGTAATCCGTATTTGAG (site ATCCCTACTCT)”, the “recombinant UMI read abundance (log10)” value came to 0.

“TTCCCTACATGGACCGGTTTTCCCGGTAATCCGTATTTGAG (site CTCCCTACTCT)”: the “recombinant UMI read abundance (log10)” value is 0.0509.

As to “TTCCCTACATGGACCGGTTTTCCCGGTAATCCGTATTTGAG (site GTCCCTACTCT)”, the “recombinant UMI read abundance (log10)” value is 0.0155.

For the sequence “TTCCCTACATGGACCGGTTTTCCCGGTAATCCGTATTTGAG (site TTCCCTACTCT)”, the “recombinant UMI read abundance (log10)” value came out at 0.00443.

In the case of “TTCGACCCATGGACCGGTTTTCCCGGTAATCCGTATTTGAG (site TTCGACCCTCT)”, the “recombinant UMI read abundance (log10)” value stood at 0.00989.

Regarding “TTCGAGACATGGACCGGTTTTCCCGGTAATCCGTATTTGAC (site TTCGAGACTGT)”, the “recombinant UMI read abundance (log10)” value was 1.53.

As to “TTCGAGGCATGGACCGGTTTTCCCGGTAATCCGTATTTGAT (site TTCGAGGCTAT)”, the “recombinant UMI read abundance (log10)” value was determined as 0.482.

Turning to “TTCGCACCATGGACCGGTTTTCCCGGTAATCCGTATTTGGT (site TTCGCACCTAC)”, the “recombinant UMI read abundance (log10)” value came to 0.00499.

In the case of “TTCGCTGCATGGACCGGTTTTCCCGGTAATCCGTATTTGTA (site TTCGCTGCTTA)”, the “recombinant UMI read abundance (log10)” value was determined as 0.369.

As for “TTCTACGCATGGACCGGTTTTCCCGGTAATCCGTATTTGTT (site TTCTACGCTAA)”, the “recombinant UMI read abundance (log10)” value turned out to be 0.603.

In the case of “TTCTAGGCATGGACCGGTTTTCCCGGTAATCCGTATTTGCG (site TTCTAGGCTCG)”, the “recombinant UMI read abundance (log10)” value worked out at 0.0116.

Take “TTCTTCACATGGACCGGTTTTCCCGGTAATCCGTATTTGTC (site TTCTTCACTGA)”: the “recombinant UMI read abundance (log10)” value stood at 0.

On to “TTGAACGCATGGACCGGTTTTCCCGGTAATCCGTATTTGAC (site TTGAACGCTGT)”, for which the “recombinant UMI read abundance (log10)” value is 0.899.

As to “TTGACTACATGGACCGGTTTTCCCGGTAATCCGTATTTGCT (site TTGACTACTAG)”, the “recombinant UMI read abundance (log10)” value amounted to 1.09.

For “TTGATTACATGGACCGGTTTTCCCGGTAATCCGTATTTGGC (site TTGATTACTGC)”, the “recombinant UMI read abundance (log10)” value turned out to be 0.

For the sequence “TTGATTCCATGGACCGGTTTTCCCGGTAATCCGTATTTGAC (site TTGATTCCTGT)”, the “recombinant UMI read abundance (log10)” value was determined as 0.35.

Take “TTGCAAGCATGGACCGGTTTTCCCGGTAATCCGTATTTGCT (site TTGCAAGCTAG)”: the “recombinant UMI read abundance (log10)” value was 0.

“TTGCTACCATGGACCGGTTTTCCCGGTAATCCGTATTTGCT (site ATGCTACCTAG)”: the “recombinant UMI read abundance (log10)” value was 0.

For the sequence “TTGCTACCATGGACCGGTTTTCCCGGTAATCCGTATTTGCT (site CTGCTACCTAG)”, the “recombinant UMI read abundance (log10)” value is 0.00337.

Take “TTGCTACCATGGACCGGTTTTCCCGGTAATCCGTATTTGCT (site GTGCTACCTAG)”: the “recombinant UMI read abundance (log10)” value was determined as 0.

With “TTGCTACCATGGACCGGTTTTCCCGGTAATCCGTATTTGCT (site TTGCTACCTAG)”, the “recombinant UMI read abundance (log10)” value came out at 0.

With “TTGGCAACATGGACCGGTTTTCCCGGTAATCCGTATTTGAT (site TTGGCAACTAT)”, the “recombinant UMI read abundance (log10)” value was determined as 0.238.

For “TTGGCGCCATGGACCGGTTTTCCCGGTAATCCGTATTTGAG (site TTGGCGCCTCT)”, the “recombinant UMI read abundance (log10)” value worked out at 0.00946.

With “TTGGTAACATGGACCGGTTTTCCCGGTAATCCGTATTTGAC (site TTGGTAACTGT)”, the “recombinant UMI read abundance (log10)” value came to 2.33.
